Measurements reported in ChEMBL document CHEMBL1124880 (J Med Chem, 1990).

Key:
Rattus norvegicus = organism: Rattus norvegicus; test: Minimal effective dose in an rat anti-immobility effect using behavioral despair test; type: functional; details: read-out: MED
Adenosine receptor A1 = target: T1, Adenosine receptor A1 (Rattus norvegicus, UniProt P25099); test: Binding affinity towards the adenosine A1 receptor in cerebral cortices of Sprague-Dawley male rats using [3H]CHA as radioligand.
T1 sequence (P25099 whole entry): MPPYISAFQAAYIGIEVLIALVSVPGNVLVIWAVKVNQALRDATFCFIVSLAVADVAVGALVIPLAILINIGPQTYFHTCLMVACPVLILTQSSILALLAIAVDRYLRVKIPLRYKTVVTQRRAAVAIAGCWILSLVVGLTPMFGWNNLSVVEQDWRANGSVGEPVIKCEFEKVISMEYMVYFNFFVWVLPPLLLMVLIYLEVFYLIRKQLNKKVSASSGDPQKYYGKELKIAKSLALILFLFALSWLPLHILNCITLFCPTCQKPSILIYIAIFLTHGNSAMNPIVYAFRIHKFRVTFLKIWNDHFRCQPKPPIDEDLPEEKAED

Adenosine A2 receptor = Adenosine A2 receptor (Rattus norvegicus, UniProt P29276+P30543)

Row | SMILES | minimal effective dose (Rattus norvegicus) [mg/kg] | IC50 (Adenosine receptor A1) [µM] | IC50 (Adenosine A2 receptor) [µM]
1 | CCc1nnc2c(N(CC)CC)nc3cc(Cl)ccc3n12 | 10 | – | –
2 | CCN(CC)c1nc2ccc(F)cc2n2c(C(F)(F)F)nnc12 | > 32 | – | –
3 | CC(C)(C)Nc1nc2ccccc2n2cnnc12 | > 32 | 19 | –
4 | CC(=O)Nc1nc2cc(F)ccc2n2cnnc12 | ≤ 32 | – | –
5 | CCc1nnc2c(N3CCCC3)nc3ccccc3n12 | > 3.2 | 10 | –
6 | CCN(CC)c1nc2ccccc2n2c(-c3ccccc3)nnc12 | 1 | – | –
7 | Cc1nnc2c(NC(C)C)nc3ccccc3n12 | 10 | 0.85 | –
8 | Clc1ccc2nc(N3CCNCC3)c3nncn3c2c1 | > 32 | – | –
9 | CCc1nnc2c(N3CCCCC3)nc3ccccc3n12 | 10 | 3.5 | –
10 | CCNc1nc2ccc(F)cc2n2c(CC)nnc12 | 3.2 | 0.7 | –
11 | CCNc1nc2ccc(Cl)cc2n2c(C(F)(F)F)nnc12 | ≤ 32 | – | –
12 | CN1CCN(c2nc3ccccc3n3cnnc23)CC1 | > 32 | > 100 | –
13 | CCc1nnc2c(NC(C)=O)nc3cc(Cl)ccc3n12 | 3.2 | – | –
14 | CCNc1nc2ccccc2n2c(C(C)C)nnc12 | ≤ 32 | 2.2 | –
15 | CCc1nnc2c(N3CCOCC3)nc3ccccc3n12 | > 10 | 28 | –
16 | O=C1CCCN1c1nc2ccccc2n2cnnc12 | > 32 | > 100 | –
17 | Cc1nnc2c(N3CCCC3)nc3ccccc3n12 | > 32 | 49 | –
18 | CCc1nnc2c(N(C)C)nc3cc(Cl)c(Cl)cc3n12 | 3.2 | – | –
19 | CCc1nnc2c(NC(=O)C(C)(C)C)nc3ccc(Cl)cc3n12 | ≤ 32 | – | –
20 | c1ccc2c(c1)nc(N1CCCCC1)c1nncn12 | > 32 | 100 | –
21 | CCc1nnc2c(N(C(C)=O)C(C)=O)nc3ccccc3n12 | 3.2 | 9.3 | –
22 | CC(C)Nc1nc2cc(F)c(F)cc2n2cnnc12 | ≤ 3.2 | 1.9 | –

Row | SMILES | minimal effective dose (Rattus norvegicus) [mg/kg] | IC50 (Adenosine receptor A1) [µM] | IC50 (Adenosine A2 receptor) [µM]
23 | CCN(CC)c1nc2ccccc2n2c(C(F)(F)F)nnc12 | ≤ 32 | – | –
24 | CCN(CC)c1nc2cc(Br)c(Br)cc2n2cnnc12 | > 32 | – | –
25 | CCCN(CCC)c1nc2ccccc2n2cnnc12 | > 32 | ≥ 100 | –
26 | CC(=O)N(c1nc2cc(Cl)c(Cl)cc2n2cnnc12)C(C)C | > 32 | – | –
27 | CCc1nnc2c(N(C)C)nc3cc(Cl)ccc3n12 | 10 | – | –
28 | CCc1nnc2c(NC(C)=O)nc3cc(F)ccc3n12 | ≤ 3.2 | – | –
29 | CC(=O)Nc1nc2ccc(Cl)cc2n2c(C(F)(F)F)nnc12 | ≤ 3.2 | 0.63 | –
30 | CCc1nnc2c(N3CCNCC3)nc3cc(Cl)c(Cl)cc3n12 | ≤ 32 | – | –
31 | CCc1nnc2c(NC(C)=O)nc3cc(OC)ccc3n12 | > 32 | – | –
32 | CC(=O)N(c1nc2ccc(Cl)cc2n2cnnc12)C(C)C | ≤ 32 | – | –
33 | CCC(=O)Nc1nc2ccc(Cl)cc2n2c(CC)nnc12 | ≤ 3.2 | – | –
34 | CCCc1nnc2c(N(CC)CC)nc3ccccc3n12 | ≤ 32 | – | –
35 | CC(=O)Nc1nc2ccc(Cl)cc2n2c(C)nnc12 | 3.2 | – | –
36 | CCc1nnc2c(N(CC)C(C)=O)nc3ccccc3n12 | ≤ 32 | – | –
37 | CC(=O)N(C(C)=O)c1nc2ccc(Cl)cc2n2cnnc12 | ≤ 32 | – | –
38 | CCN(CC)c1nc2ccccc2n2c(C(C)C)nnc12 | ≤ 32 | 19 | –
39 | CCN(CC)c1nc2ccc(F)cc2n2cnnc12 | 3.2 | > 10 | –
40 | COc1ccc2c(c1)nc(NC(C)C)c1nncn12 | > 32 | – | –
41 | CCNc1nc2cc(F)c(F)cc2n2cnnc12 | 3.2 | 4.7 | –
42 | CCc1nnc2c(N(CC)CC)nc3ccc(OC)cc3n12 | ≤ 32 | – | –
43 | CC(=O)Nc1nc2ccccc2n2cnnc12 | ≤ 32 | – | –
44 | CCN(CC)c1nc2ccccc2n2c(C)nnc12 | 3.2 | > 10 | –

Row | SMILES | minimal effective dose (Rattus norvegicus) [mg/kg] | IC50 (Adenosine receptor A1) [µM] | IC50 (Adenosine A2 receptor) [µM]
45 | Cc1nnc2c(NC(C)C)nc3ccc(Cl)cc3n12 | 3.2 | 0.1 | –
46 | CCNc1nc2cc(F)ccc2n2c(CC)nnc12 | ≤ 32 | – | –
47 | CC(=O)Nc1nc2ccc(F)cc2n2cnnc12 | ≤ 32 | – | –
48 | CN(C)c1nc2ccc(F)cc2n2cnnc12 | ≤ 32 | – | –
49 | Cc1nnc2c(N)nc3ccc(Cl)cc3n12 | ≤ 32 | 0.35 | –
50 | CCNc1nc2ccc(Cl)cc2n2c(-c3ccccc3)nnc12 | > 32 | – | –
51 | CCN(CC)c1nc2ccc(Cl)cc2n2c(C)nnc12 | ≤ 32 | 17 | –
52 | CCNc1nc2ccc(Cl)cc2n2c(CC)nnc12 | 3.2 | – | –
53 | CC(C)Nc1nc2cc(Cl)c(Cl)cc2n2cnnc12 | 3.2 | 1 | –
54 | CC(=O)N(C(C)=O)c1nc2ccccc2n2cnnc12 | ≤ 32 | – | –
55 | CCc1nnc2c(NC(C)=O)nc3ccccc3n12 | 1 | – | –
56 | CCc1nnc2c(N(CC)CC)nc3cc(F)c(F)cc3n12 | 3.2 | – | –
57 | CCc1nnc2c(NC(C)=O)nc3ccc(F)cc3n12 | ≤ 3.2 | – | –
58 | CCN(CC)c1nc2ccc(Cl)cc2n2c(-c3ccccc3)nnc12 | > 32 | – | –
59 | c1ccc2c(c1)nc(N1CCCC1)c1nncn12 | > 32 | 50 | –
60 | CCc1nnc2c(N3CCCC3=O)nc3ccccc3n12 | > 32 | – | –
61 | CCc1nnc2c(NC)nc3ccccc3n12 | 3.2 | 6 | –
62 | CCc1nnc2c(NC(C)=O)nc3cc(Cl)c(Cl)cc3n12 | ≤ 3.2 | 1.3 | –
63 | CCc1nnc2c(NC(C)=O)nc3ccc(Cl)cc3n12 | 1 | 1.8 | –
64 | CCc1nnc2c(N(CC)CC)nc3ccc(Cl)cc3n12 | ≤ 32 | 6.5 | –
65 | CCCC(=O)Nc1nc2ccc(Cl)cc2n2c(CC)nnc12 | ≤ 32 | – | –
66 | Nc1nc2cc(Cl)ccc2n2cnnc12 | ≤ 32 | 1.2 | 0.21

Row | SMILES | minimal effective dose (Rattus norvegicus) [mg/kg] | IC50 (Adenosine receptor A1) [µM] | IC50 (Adenosine A2 receptor) [µM]
67 | CCc1nnc2c(N(CC)CC)nc3ccc(F)cc3n12 | 10 | – | –
68 | CCc1nnc2c(NCCO)nc3ccccc3n12 | ≤ 32 | 1.6 | –
69 | Oc1cccc(C2=CSC3=Nc4ccccc4CN23)c1 | – | 18 | 0.53
70 | CCc1nnc2c(N(C(C)=O)C(C)C)nc3ccc(Cl)cc3n12 | 10 | – | –
71 | COc1ccc2c(c1)nc(NC(C)=O)c1nncn12 | ≤ 32 | – | –
72 | CCNc1nc2ccccc2n2c(C(F)(F)F)nnc12 | 32 | – | –
73 | CCc1nnc2c(N(CC)CC)nc3cc(Cl)c(Cl)cc3n12 | 3.2 | 100 | –
74 | CN(C)c1nc2ccccc2n2cnnc12 | ≤ 32 | 59 | –
75 | CCN(CC)c1nc2ccc(OC)cc2n2cnnc12 | > 32 | – | –
76 | CNc1nc2ccccc2n2cnnc12 | 32 | 100 | –
77 | CCN(CC)c1nc2cc(Cl)ccc2n2cnnc12 | 32 | – | –
78 | CCN(CC)c1nc2cc(F)c(F)cc2n2cnnc12 | 3.2 | 5 | –
79 | c1ccc2c(c1)nc(N1CCOCC1)c1nncn12 | > 32 | – | –
80 | COc1nnc2c(NC(C)C)nc3ccc(Cl)cc3n12 | ≤ 32 | – | –
81 | Nc1nc2cc(Cl)c(Cl)cc2n2cnnc12 | > 32 | – | –
82 | CC(=O)Nc1nc2ccc(F)cc2n2c(C(F)(F)F)nnc12 | ≤ 3.2 | 3.6 | –
83 | CC(CO)Nc1nc2ccc(F)cc2n2cnnc12 (centres undefined) | > 32 | – | –
84 | CC(N)Cc1ccccc1.O=S(=O)(O)O (centres undefined) [AMPHETAMINE SULFATE] | < 1 | – | –
85 | Nc1nc2ccc(Cl)cc2c2nc(-c3ccco3)nn12 [CGS-15943] | < 32 | – | 0.0028
86 | CN(C)CCCN1c2ccccc2CCc2ccccc21 [IMIPRAMINE] | > 17.8 | – | –
